Results from patent US11352350B2, “IRAK degraders and uses thereof” (Kymera Therapeutics, Inc., priority 2018, dated 2022).

What was measured:
IRAK4 [1] = target: T1, IRAK4 (Homo sapiens (Human), UniProt Q9NWZ3); test: IRAK4 degradation in human whole blood monocyte - flow cytometry; format: cell-based; details: read-out: IRAK4 degradation in whole blood monocyte-Flow cytometry: Average external Abs IC50
Description: (§1) Human whole blood IRAK4 degradation flow assay. Whole blood was collected in heparinized tubes and plated on the same day as draw (day 0). Whole blood was aliquoted into deep well plates. Compound plates were prepared and a 10 point, 5-fold dilution was performed with a final DMSO concentration of 0.1%. Compound was added to whole blood deep well plate, sealed and incubated at 37° C., 5% CO2 for 20 hours (for 4 hour treatment, compounds were prepared and added the following day). Following the treatment incubation period (day 1), BD lyse fix (BD #558049) was added to the whole blood plate, placed on plate shaker for 30 seconds and incubated for 10 mins at room temperature. Whole blood was then spun down and washed two times with PBS/0.5% BSA, aspirated to pellet and placed into −80° C. freezer until further processing for flow. On the flow run day, whole blood plates were thawed and samples were transferred to PCR plates. The pre-perm staining cocktail (CD3 Ax488/CD8 BUV805/CD14 BUV395/CD16/56 BV711/CD19 BV785) was added to samples and incubated for 30 minutes at room temperature. Samples were washed two times and permeabilized with Methanol for 10 minutes at 4° C. Samples were washed two times and the post-perm staining cocktail (CD4 PE/IRAK4 Ax647 BD #560315) was added and incubated for 30 minutes at room temperature. Samples were washed two times with PBS/BSA and run on a BD LSRFortessa. Mononuclear cells are gated by SSCH/FSCH and single cells. Monocytes are then gated through CD14 positive gate and lymphocytes are gated through CD14 negative gate. To determine absolute DC50 and max degradation values, MFI values were normalized to DMSO max and 20 hour 10 μM min control. Twenty hour dose curves were calculated using a 4 parameter logistic regression curve fit, no constraints (Top doses were removed if hook effects were observed and the bottom was constrained to 0).

OCI-LY10 = test: CTG Cell Viability Assay - OCI-LY10; format: cell-based, human; details: Homo sapiens, OCI-Ly10, 96 h, OCI-LY10, 4 days; read-out: CTG Cell Viability Assay - OCI-LY10: Average external-IC50
Procedure, shortened: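 OCI-LY10 cells exposed to 9-dose, 1:3 dilutions from 10 μM top (0.2% DMSO) for 4 days at 37° C, 5% CO2. Viability by CellTiter-Glo luminescence; IC50 from three-parameter logistic fit.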

IRAK4 [2] = target: T1, IRAK4; test: IRAK4 MSD degradation in OCI-LY10; format: cell-based
Procedure, shortened: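 OCI-LY10 cells treated with 8-point 1:3 dilutions (top 1 to 10 μM final) for 4 to 24 h at 37° C. Lysate IRAK4 measured by MSD sandwich immunoassay (2H9 capture, Y279 detection, SULFO-TAG anti-rabbit). DC50 from three-parameter logistic fit.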

IRAK4 [3] = target: T1, IRAK4; test: IRAK4 degradation in human whole blood lymphocyte - flow cytometry; format: cell-based; details: read-out: IRAK4 degradation in whole blood lymphocyte-Flow cytometry: Average external Abs IC50
Description: as §1

IRAK4 [4] = target: T1, IRAK4; test: hPBMC IRAK4 degradation flow assay; format: cell-based; details: hPBMC monocyte
Procedure, shortened: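 Thawed human PBMCs treated with 10-point, 5-fold compound dilutions (0.1% DMSO) at 37° C. for 20 hours or 4 hours. IRAK4 measured by flow MFI in CD14+ monocytes and CD14− lymphocytes, normalized to DMSO and 10 μM 20-hour control; DC50 and max degradation from 4-parameter logistic fit.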

IL-6 = IL-6 secretion in hPBMC using R848 stimulation; format: cell-based, human; details: hPBMC, R848 as stim, t = 20 h
[5] = OCI-LY10, 4 hrs, MSD, read-out: IRAK4 MSD degradation in OCI-LY10 at 4 hrs: Average external-Abs DC50
[6] = 20 hrs, read-out: IRAK4 degradation in hPBMC monocyte: DC50
[7] = OCI-LY10, 4 hrs, read-out: IRAK4 MSD degradation in OCI-LY10 at 4 hrs: DC50
[8] = 20 hr, flow assay, read-out: IRAK4 degradation in hPBMC monocyte at 20 hr: Average external Abs DC50
[9] = OCI-LY10, 24 hrs, MSD, read-out: IRAK4 MSD degradation in OCI-LY10 at 24 hrs: Average external-Abs DC50

T1 sequence (Q9NWZ3 whole entry): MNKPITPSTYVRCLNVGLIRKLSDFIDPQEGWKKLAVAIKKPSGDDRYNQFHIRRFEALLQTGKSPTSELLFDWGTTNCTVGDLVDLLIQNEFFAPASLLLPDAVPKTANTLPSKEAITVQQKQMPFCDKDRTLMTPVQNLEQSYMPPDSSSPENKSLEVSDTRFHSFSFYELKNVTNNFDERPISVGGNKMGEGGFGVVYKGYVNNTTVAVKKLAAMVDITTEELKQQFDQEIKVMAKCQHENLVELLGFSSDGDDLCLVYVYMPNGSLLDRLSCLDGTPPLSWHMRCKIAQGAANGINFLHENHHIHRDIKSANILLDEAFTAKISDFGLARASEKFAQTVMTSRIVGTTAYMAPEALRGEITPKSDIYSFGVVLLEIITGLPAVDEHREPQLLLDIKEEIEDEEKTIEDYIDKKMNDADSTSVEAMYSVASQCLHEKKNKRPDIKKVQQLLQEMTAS

Row | SMILES | DC50 (IRAK4 [1]) | IC50 (OCI-LY10) | DC50 (IRAK4 [2]; [5]) | DC50 (IRAK4 [3]) | IC50 (IRAK4 [1]) | DC50 (IRAK4 [4]; [6]) | IC50 (IL-6) | DC50 (IRAK4 [2]; [7]) | DC50 (IRAK4 [4]; [8]) | IC50 (IL-6; Homo sapiens, 20 h) | DC50 (IRAK4 [2]; [9])
1 | O=C1CCC(n2c3ccccc3c3c(CCCOCCOCCNC[C@H]4CC[C@H](n5cc(NC(=O)c6coc(-c7ccnc(NCC8CC8)c7)n6)c(C(F)F)n5)CC4)ccnc32)C(=O)N1 (some centres unmarked) [I-92] | 0.1 to 0.5 µM | 0.1 to 0.5 µM | 0.01 to 0.1 µM | 0.5 to 1 µM |  |  |  |  |  |  | 
2 | O=C1CCC(n2c(=O)oc3cc(CCCOCCOCCNC[C@H]4CC[C@H](n5cc(NC(=O)c6coc(-c7ccnc(NCC8CC8)c7)n6)c(C(F)F)n5)CC4)ccc32)C(=O)N1 (some centres unmarked) [I-3] |  | > 1 µM | < 0.01 µM | < 0.05 µM | < 0.05 µM |  |  |  |  |  | 
3 | Cn1c(=O)n(C2CCC(=O)NC2=O)c2cccc(CCCN3CCOC4(CCN(C[C@H]5CC[C@H](n6cc(NC(=O)c7cnn8ccc(N9C[C@H]%10C[C@@H]9CO%10)nc78)c(C(F)F)n6)CC5)CC4)C3)c21 (some centres unmarked) [I-450] |  | > 1 µM |  |  |  | < 0.01 µM | 0.001 to 0.01 µM | 0.01 to 0.1 µM |  |  | 
4 | CC(C)c1nn([C@H]2CC[C@H](CN(C)C[C@@H]3CN(CCCc4ccc5c(c4)n(C)c(=O)n5C4CCC(=O)NC4=O)CCO3)CC2)cc1NC(=O)c1coc(-c2ccnc(NCC3CC3)c2)n1 (stereo partly drawn) [I-94, 2-[2-(Cyclopropylmethylamino)-4-pyridyl]-N-[1-[4-[[[(2R)-4-[3-[1-(2,6-dioxo-3-piperidyl)-3-methyl-2-oxo-benzimidazol-5-yl]propyl]morpholin-2-yl]methyl-methyl-amino]methyl]cyclohexyl]-3-isopropyl-pyrazol-4-yl]oxazole-4-carboxamide] | 0.1 to 0.5 µM |  |  | 0.1 to 0.5 µM |  |  |  |  |  |  | 
5 | CN(C[C@@H]1CN(Cc2cccc3c2n(C)c(=O)n3C2CCC(=O)NC2=O)CCO1)C[C@H]1CC[C@H](n2cc(NC(=O)c3cnn4ccc(N5C[C@H]6C[C@@H]5CO6)nc34)c(C(F)F)n2)CC1 (some centres unmarked) [I-411] |  | > 1 µM | > 1 µM |  |  |  |  |  | 0.01 to 0.1 µM | < 0.001 µM | 
6 | CN(CC(CCCOCCCc1cccc2c1n(C)c(=O)n2C1CCC(=O)NC1=O)C(=O)O)C[C@H]1CC[C@H](n2cc(NC(=O)c3coc(-c4ccnc(NCC5CC5)c4)n3)c(C(F)F)n2)CC1 (some centres unmarked) [I-396, 2-[[[4-[4-[[2-[2-(Cyclopropylmethylamino)-4-pyridyl]oxazole-4-carbonyl]amino]-3-(difluoromethyl)pyrazol-1-yl]cyclohexyl]methyl-methyl-amino]methyl]-5-[3-[1-(2,6-dioxo-3-piperidyl)-3-methyl-2-oxo-benzimidazol-4-yl]propoxy]pentanoic acid] |  | 0.05 to 0.1 µM | 0.01 to 0.1 µM |  |  |  |  |  | 0.01 to 0.1 µM | 0.001 to 0.01 µM | 
7 | C[C@H](C#Cc1cccc2c1N(C)C(=O)C2C1CCC(=O)NC1=O)OC1CCN(C[C@H]2CC[C@H](n3cc(NC(=O)c4cnn5ccc(N6C[C@H]7C[C@@H]6CO7)nc45)c(C(F)F)n3)CC2)CC1 (some centres unmarked) [I-555] |  | > 1 µM |  |  |  | < 0.01 µM |  | < 0.01 µM |  | 0.001 to 0.01 µM | 
8 | CN(CC(CCCOCCCc1cccc2c1n(C)c(=O)n2C1CCC(=O)NC1=O)C(=O)O)C[C@H]1CC[C@H](n2cc(NC(=O)c3cnn4ccc(N5C[C@H]6C[C@@H]5CO6)nc34)c(C(F)F)n2)CC1 (stereo partly drawn) [I-495, 2-[[[4-[3-(Difluoromethyl)-4-[[5-[(1R,4R)-2-oxa-5-azabicyclo [2.2.1]heptan-5-yl]pyrazolo [1,5-a]pyrimidine-3-carbonyl]amino]pyrazol-1-yl]cyclohexyl]methyl-methyl-amino]methyl]-5-[3-[1-(2,6-dioxo-3-piperidyl)-3-methyl-2-oxo-benzimidazol-4-yl]propoxy]pentanoic acid] |  | > 1 µM |  |  |  | 0.01 to 0.1 µM |  | 0.1 to 1 µM |  | 0.01 to 0.1 µM | 
9 | CC[C@@H]1[C@H](F)C(=O)N[C@@H]1COc1ncc(C#C[C@H]2CC[C@H](CN(C)CCCOCCCc3ccc4c(c3)n(C)c(=O)n4C3CCC(=O)NC3=O)CC2)c2cc(C(N)=O)c(OC)cc12 (some centres unmarked) [I-185] |  | > 1 µM | 0.01 to 0.1 µM |  |  |  |  |  | < 0.01 µM | < 0.001 µM | 0.01 to 0.1 µM
10 | Cn1c(=O)n(C2CCC(=O)NC2=O)c2cccc(CCCOCCOCCNC(=O)[C@H]3CC[C@H](n4cc(NC(=O)c5coc(-c6ccnc(NCC7CC7)c6)n5)c(C(F)F)n4)CC3)c21 (some centres unmarked) [I-1] | 0.1 to 0.5 µM | 0.05 to 0.1 µM | < 0.01 µM | 0.1 to 0.5 µM |  |  |  |  |  |  | 0.01 to 0.1 µM
11 | CN(C[C@H]1CC[C@H](C2N=C(NC(=O)c3cnn4ccc(N5C[C@H]6C[C@@H]5CO6)nc34)C(C(F)F)=N2)CC1)C1CCC2(CC1)CC(Cc1cccc3c1n(C)c(=O)n3C1CCC(=O)NC1=O)C2 (some centres unmarked) [I-554] |  | > 1 µM |  |  |  | < 0.01 µM |  | 0.01 to 0.1 µM |  | < 0.001 µM | 
12 | Cn1c(=O)n(C2CCC(=O)NC2=O)c2cccc(CC(=O)N3CC4(CCN(C[C@H]5CC[C@H](n6cc(NC(=O)c7cnn8ccc(N9C[C@H]%10C[C@@H]9CO%10)nc78)c(C(F)F)n6)CC5)CC4)C3)c21 (some centres unmarked) [I-421] |  | > 1 µM | < 0.01 µM |  |  |  |  |  | < 0.01 µM | < 0.001 µM | 
13 | Cn1c(=O)n(C2CCC(=O)NC2=O)c2cccc(CCCOC3CCN(C[C@H]4CC[C@H](n5cc(NC(=O)c6cnn7cccnc67)c(N6CCOCC6)n5)CC4)CC3)c21 (some centres unmarked) [I-481] |  | > 1 µM |  |  |  | 0.1 to 1 µM |  | 0.1 to 1 µM |  | 0.01 to 0.1 µM | 
14 | Cn1c(=O)n(C2CCC(=O)NC2=O)c2cccc(CCCOC3CCN(C[C@H]4CC[C@H](n5cc(NC(=O)c6cnn7ccc(N8CCCOCC8)nc67)c(C(F)F)n5)CC4)CC3)c21 (some centres unmarked) [I-515] |  | > 1 µM |  |  |  | < 0.01 µM |  | < 0.01 µM |  | < 0.001 µM | 
15 | O=C1CCC(n2c3cccc(C#CCOC4CCN(C[C@H]5CC[C@H](n6cc(NC(=O)c7cnn8ccc(N9C[C@H]%10C[C@@H]9CO%10)nc78)c(C(F)F)n6)CC5)CC4)c3c3cccnc32)C(=O)N1 (some centres unmarked) [I-482] |  | > 1 µM |  |  |  | 0.1 to 1 µM |  | 0.01 to 0.1 µM |  | 0.001 to 0.01 µM | 
16 | Cc1ccc(-c2nn([C@H]3CC[C@H](C(=O)N4CCC5(CC4)CN(CCCc4cccc6c4n(C)c(=O)n6C4CCC(=O)NC4=O)C5)CC3)cc2NC(=O)c2cnn3cccnc23)nc1 (some centres unmarked) [I-499] |  | > 1 µM |  |  |  | < 0.01 µM |  | < 0.01 µM |  | 0.001 to 0.01 µM | 
17 | Cn1c(=O)n(C2CCC(=O)NC2=O)c2cccc(OC3CC4(CCN(C[C@H]5CC[C@H](n6cc(NC(=O)c7cnn8ccc(N9C[C@H]%10C[C@@H]9CO%10)nc78)c(C(F)F)n6)CC5)CC4)C3)c21 (some centres unmarked) [I-526] |  | > 1 µM |  |  |  | < 0.01 µM |  | < 0.01 µM |  | < 0.001 µM | 
18 | C[C@@H]1CN(c2ccn3ncc(C(=O)Nc4cn([C@H]5CC[C@H](C(=O)N6CCC7(CC6)CN(CCCc6cccc8c6n(C)c(=O)n8C6CCC(=O)NC6=O)C7)CC5)nc4C(F)F)c3n2)C[C@H](C)O1 (some centres unmarked) [I-480] |  | > 1 µM |  |  |  | < 0.01 µM |  | 0.01 to 0.1 µM |  | < 0.001 µM | 
19 | CN(CCCc1cccc2c1n(C)c(=O)n2C1CCC(=O)NC1=O)C(=O)c1ccc(N2CCC(n3cc(NC(=O)c4cnn5ccc(N6C[C@H]7C[C@@H]6CO7)nc45)c(C(F)F)n3)CC2)cc1 (some centres unmarked) [I-479] |  | > 1 µM |  |  |  | 0.1 to 1 µM |  | 0.1 to 1 µM |  | 0.01 to 0.1 µM | 
20 | Cn1c(=O)n(C2CCC(=O)NC2=O)c2cccc(CCC3CC4(CCN(C[C@H]5CC[C@H](n6cc(NC(=O)c7cnn8ccc(N9C[C@H]%10C[C@@H]9CO%10)nc78)c(C(F)F)n6)CC5)CC4)C3)c21 (some centres unmarked) [I-486] |  | > 1 µM |  |  |  | < 0.01 µM |  | < 0.01 µM |  | < 0.001 µM | 
